{"source": "paper PMC11100771", "about": "“Structural basis of ligand specificity and channel activation in an insect gustatory receptor” (Cell reports, 2024)", "molecular_target": "T1, Bombyx mori Gr9 (BmGr9) (Bombyx mori, UniProt B3GTD7)", "T1 construct": "N-terminally Twin-Strep-tagged BmGr9, homotetramer", "T1 sequence (B3GTD7 1-449)": "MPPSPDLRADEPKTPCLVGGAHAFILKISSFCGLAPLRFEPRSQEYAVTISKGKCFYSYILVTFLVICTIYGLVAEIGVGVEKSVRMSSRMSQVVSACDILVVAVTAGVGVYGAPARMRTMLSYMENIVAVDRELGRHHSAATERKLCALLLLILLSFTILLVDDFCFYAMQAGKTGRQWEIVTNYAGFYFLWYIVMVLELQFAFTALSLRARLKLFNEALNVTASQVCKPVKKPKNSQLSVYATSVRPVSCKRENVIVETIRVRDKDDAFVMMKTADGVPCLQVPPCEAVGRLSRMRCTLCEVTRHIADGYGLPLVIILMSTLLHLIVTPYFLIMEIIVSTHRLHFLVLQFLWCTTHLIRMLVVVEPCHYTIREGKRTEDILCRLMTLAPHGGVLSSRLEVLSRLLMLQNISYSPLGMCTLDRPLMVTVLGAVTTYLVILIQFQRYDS", "test": "cryo-EM structure ([…] Å) with […] D-fructose; EC50 by two-electrode voltage clamp in Xenopus oocytes", "type": "cell-based"}
{"smiles": "OCC1(O)OC[C@@H](O)[C@@H](O)[C@@H]1O", "note": "(stereo partly drawn) [D-fructose]", "values": [{"measurement": "EC50", "result": 22, "unit": "mM"}]}
